In patent publication EP1438962A1, “DRUGS COMPRISING COMBINATION OF TRIAZASPIRO 5,5 U NDECANE DERIVATIVE WITH CYTOCHROME P450 ISOZYME 3A4 INHIBITOR AND/OR P−GLYCOPROTEIN INHIBITOR” (ONO PHARMACEUTICAL CO., LTD., priority 2001, dated 2003):
Where two headings read alike, the source gives them in different places. Values belong to the compound of their own block, whether it stands above or below them.

How the values were obtained:
[1] = Plasma concentration after intravenous administration in rat in the presence of CYP 3A4 inhibitor; assay type: in vivo; details: male SD rats, test compound 3 mg/kg intravenously; for AUC increase in the presence of ketoconazole versus absence: ketoconazole 50 mg/kg intraperitoneally; for AUC at 4 h: rat, in vivo, iv, 3 mg/kg
Method: Ketoconazole (50 mg/kg), an inhibitor against CYP 3A4, was intraperitoneally administered to male SD rats. One hour thereafter, the test compound (3 mg/kg) was intravenously administered. After 2, 5, 15, 30, 60, 120 and 240 minutes from the administration of the test compound, blood was collected from the rat jugular vein and centrifuged at 3,000 rpm for 10 minutes to obtain plasma. To 150 µL of the resulting plasma were added 5 ng of 2-[4-[4-(2-methoxyphenyl)-1-piperazinyl]butylamino]-5-ethoxycarbonyl-4,6-dimethylpyrimidine trihydrochloride as an internal standard, proteins were removed therefrom using ethanol and a plasma concentration of the test compound was measured by high-performance liquid chromatography. From the resulting plasma concentration of the test compound, the area under the curve of plasma concentration vs. time (AUC, µg·min/mL) was calculated.

CYP 3A4 = assay: Metabolic reaction in pooled human liver microsome with or without the CYP 3A4 inhibitor ketoconazole; assay type: in vitro ADME; details: 1 µmol/L test compound, 37°C, after 60 minutes; for Residual rate (%) Ketoconazole (+): ketoconazole 1 µmol/L; for Residual rate (%) Ketoconazole (-): without ketoconazole
From the text: Metabolic reaction of a test compound in pooled human liver microsome (Zenotec) in the presence of a specific inhibitor for each CYP molecular species was investigated and the CYP molecular species participating in the metabolism was estimated from the effect of each inhibitor.
The following inhibitors were used as the specific inhibitors for CYP molecular species:
A mixed solution containing 100 mmol/L of a phosphate buffer (pH 7.4), 0.05 mmol/L disodium ethylenediaminetetraacetate, 5 mmol /L magnesium chloride, 1 µmol/L of a test compound, 0.2 mg/L of human liver microsome (8 mg/L only for the measurement of a metabolism inhibiting rate by CYP 2C19) and each inhibitor (each of the numerals being the final concentration) was pre-incubated at 37°C, and then 2 mmol/L NADPH was added thereto to start the reaction. Immediately thereafter and after 60 minutes, 100 µL. of the sample was collected. The collected sample was immediately added to 2 mL of diethyl ether containing 400 µL of distilled water and 0.1 µg/L of an internal standard substance, followed by stirring, and the reaction was stopped. After a centrifugal treatment (2,000 rpm for 3 minutes), diethyl ether which was an upper layer was collected and dried in vacuo. The residue was dissolved in 150 µL of 0.01% TFA-80% acetonitrile and 40 µL thereof was subjected to a measurement. In this test, no quantitative determination was conducted but the residual rate to the concentration of the compound immediately after starting the reaction was determined from the area ratio in liquid chromatography/tandem mass analysis (LC/MS/MS) chromatogram.

[2] = test system: Human MDR1 expressed cells (LLC-GA-5-COL 150); assay: Membrane permeability of P-gp expression cells; assay type: in vitro ADME; details: COL 150 cells, CsA (-), compound 10 µM
Method: (§1) Human MDR1 expressed cells (LLC-GA-5-COL 150) and parent cells thereof (LLC-PK 1) were incubated until arriving confluent in a 12-well transwell plate to prepare a single-layer membrane. Compound 75(54) was adjusted to 10 µM using a buffer for the measurement (M 199, 26.2 mM NaHCO3, 10% FBS, 0.03% L-glutamine; pH 7.4). In measuring the membrane permeability from lumen to blood vessel, the drug solution was loaded to the lumen while, in measuring the membrane permeability from blood vessel to lumen, it was loaded to the blood vessel and incubation was carried out under conditions at 37°C, 5% CO2 and relative humidity of 90%. After a certain period, the sample solution was collected and, in order to keep each volume, a buffer for the measurement was supplemented to an extent of the collected volume. Similarly, membrane permeability of Compound 75(54) was observed as well in the presence of cyclosporine A (abbreviated as CsA; final concentration: 10 µM) which is an inhibitor for P-gp. The measurement was carried out 3 times. All samples were evaluated by means of LS/MS/MS.

[3] = Plasma concentration upon oral administration to rats in the presence of an HIV protease inhibitor; assay type: in vivo; details: male SD rats
Method: Amprenavir, nelfinavir, ritonavir or saquinavir (10 mg/kg) which is an HIV protease inhibitor and 10 mg/kg of the test compound were orally administered to male SD rats at the same time. After 15, 30, 60, 120, 240 and 360 minutes from the administration of the test compound, blood was collected from the rat jugular vein and centrifuged at 3,000 rpm for 10 minutes to give plasma. To 200 µL of the resulting plasma were added 50 ng of (3S)-1-butyl-2,5-dioxo-3-(2-methylpropyl)-9-)4-phenyloxyphenylmethyl)-1,4,9-triazaspiro[5.5]undecane as an internal standard. To this were added 300 µL of distilled water and 2,000 µL of diethyl ether, followed by well stirring, and the diethyl ether layer recovered therefrom was dried in vacuo. The dried substance was dissolved in 150 µL of a 50% acetonitrile solution containing 0.005% trifluoroacetic acid and subjected to a liquid chromatography/tandem mass analysis (LC/MS/MS) method to measure a plasma concentration of the test compound. From the concentration of the test compound in the resulting plasma, the area under curve of plasma concentration vs. time (AUC, µg·min/mL) was calculated.

[4] = test system: parent cells thereof (LLC-PK 1); assay: Membrane permeability of parent cells; assay type: in vitro ADME; details: PK 1 cells, CsA (-), compound 10 µM
Method: as §1

Caco-2 cells = assay: Permeability of Caco-2 in the presence of P-gp inhibitor; assay type: in vitro ADME; details: drug 10 µM
Method: Caco-2 cells were incubated in a 12-well transwell place on a collagen-coated porous polycarbonate membrane until arriving confluent to prepare a single-layer membrane of Caco-2 cells. The single-layer membrane was preincubated for 30 minutes in a buffer for the measurement (a Hanks buffer containing 10 mM HEPES and 15 mM glucose; pH 7.0 ± 0.2) to which d-α-tocopheryl polyethylene glycol 1000 succinate, a P-gp inhibitor, was added. The drug concentration was adjusted to 10 µM by a buffer for the measurement. In measuring the membrane permeability from lumen to blood vessel, the drug solution was loaded to the lumen while, in measuring the membrane permeability from blood vessel to lumen, it was loaded to the blood vessel and incubation was carried out under conditions at 37°C, 5% CO2 and relative humidity of 90%. After 1 and 2 hours from the administration of the drug, 200 µL of the buffer for the measurement containing the drug solution were recovered and substituted with a new buffer for the measurement. The measurement was carried out 2 times. Membrane permeability in a cell-free state was measured and used as a blank. As a control, permeability of Lucifer Yellow was measured. All samples were evaluated by LC/MS. A permeation coefficient (Papp) was calculated according to the following equation. Papp = (dc / dt) • Vr / (A • C0 ) [formula]
In the equation, dc/dt is a permeation rate after lag time; Vr is a volume of the solution at the side of a donor; A is a surface area; and C0 is the initial concentration of the solution at the side of the donor.

[5] = Plasma concentration upon oral administration to rats in the presence of CYP 3A4 inhibitor; assay type: in vivo; details: male SD rats, test compound 30 mg/kg orally, ketoconazole 50 mg/kg intraperitoneally one hour before
Method: Ketoconazole (50 mg/kg), a CYP 3A4 inhibitor, was intraperitoneally administered to male SD rats. One hour thereafter, 30 mg/kg of the test compound was orally administered. After 15, 30, 60, 120, 240 and 360 minutes from administration of the test compound, blood was collected from the rat jugular vein and centrifuged at 3,000 rpm for 10 minutes to give plasma. To 150 µL of the resulting plasma were added 5 ng of 2-[4-[4-(2-methoxyphenyl)-1-piperazinyl]butyl-amino]-5-ethoxycarbonyl-4,6-dimethylpyrimidine trihydrochloride, proteins were removed therefrom using ethanol and plasma concentration of the test compound was measured by high-performance liquid chromatography. From the concentration of the test compound in the resulting plasma, the area under curve of plasma concentration vs. time (AUC, µg•min/mL) was calculated.

AUC increase in the presence of ketoconazole versus absence [1]: about 4 times | AUC at 4 h ([1]; ketoconazole 50 mg/kg intraperitoneally one hour before, read-out: AUC in the presence of ketoconazole (converted)): 4350 ng·h/mL | AUC at 4 h ([1]; no ketoconazole, read-out: AUC in the absence of ketoconazole (converted)): 1020 ng·h/mL | Residual rate (%) Ketoconazole (+) (CYP 3A4): 89.1% | Residual rate (%) Ketoconazole (-) (CYP 3A4): 32.1%
Structure (SMILES): CCCCN1C(=O)C(CC(C)C)NC(=O)C12CCN(Cc1c(C)nn(-c3ccccc3)c1C)CC2 (stereo not shown) [Compound 3(1)]

Residual rate (%) Ketoconazole (+) (CYP 3A4): 104.0% | Residual rate (%) Ketoconazole (-) (CYP 3A4): 28.2%
Structure (SMILES): CCCCN1C(=O)[C@H](CC2CCCCC2)NC(=O)C12CCN(Cc1ccc(Oc3ccc(C(=O)O)cc3)cc1)CC2 [Compound 40(70), (3S)-1-butyl-2,5-dioxo-3-cyclohexylmethyl-9-(4-(4-carboxyphenyloxy)phenylmethyl)-1,4,9-triazaspiro[5.5]undecane]

Residual rate (%) Ketoconazole (+) (CYP 3A4): 114.4% | Residual rate (%) Ketoconazole (-) (CYP 3A4): 19.4%
Structure (SMILES): CCCCN1C(=O)[C@@H]([C@H](O)C2CCCCC2)NC(=O)C12CCN(Cc1c(C)nn(-c3ccc(C(=O)NC)cc3)c1C)CC2 [Compound 75(53), (3R)-1-butyl-2,5-dioxo-3-((1R)-1-hydroxy-1-cyctohexylmethyl)-9-(3,5-dimethyl-1-(4-methylaminocarbonylphenyl)pyrazol-4-ylmethyl)-1,4,9-triazaspiro[5.5]undecane]

Structure (SMILES): CCCCN1C(=O)[C@@H]([C@H](O)C2CCCCC2)NC(=O)C12CCN(Cc1ccc(Oc3ccc(C(=O)O)cc3)cc1)CC2 [Compound 75(54), (3R)-1-butyl-2,5-dioxo-3-((1R)-1-hydroxy-1-cyclohexylmethyl)-9-(4-(4-carboxyphenyloxy)phenylmethyl)-1,4,9-triazaspiro[5.5]undecane]
AUC increase in the presence of ketoconazole versus absence [1]: about 3 times | Permeability From blood vessel to lumen [2]: 34.3 µL/cm^2/hr | Permeability From lumen to blood vessel [2]: 2.06 µL/cm^2/hr | AUC increase in the presence of amprenavir versus absence ([3]; test compound 10 mg/kg and amprenavir 10 mg/kg orally at the same time): 3.7 times | AUC increase in the presence of nelfinavir versus absence ([3]; test compound 10 mg/kg and nelfinavir 10 mg/kg orally at the same time): 3.4 times | AUC increase in the presence of ritonavir versus absence ([3]; test compound 10 mg/kg and ritonavir 10 mg/kg orally at the same time): 7.7 times | AUC increase in the presence of saquinavir versus absence ([3]; test compound 10 mg/kg and saquinavir 10 mg/kg orally at the same time): 1.7 times | Permeability From blood vessel to lumen [4]: 18.8 µL/cm^2/hr | Permeability From lumen to blood vessel [4]: 35.3 µL/cm^2/hr | Permeation Coefficient From blood vessel to lumen (Caco-2 cells; Caco-2, 0.025% TPGS (+)): 13 cm/s | Permeation Coefficient From lumen to blood vessel (Caco-2 cells; Caco-2, 0.025% TPGS (+)): 10.5 cm/s | Permeation Coefficient From blood vessel to lumen (Caco-2 cells; Caco-2, 0.025% TPGS (-)): 32.4 cm/s | Permeation Coefficient From lumen to blood vessel (Caco-2 cells; Caco-2, 0.025% TPGS (-)): 3.42 cm/s | Residual rate (%) Ketoconazole (+) (CYP 3A4): 95.3% | Residual rate (%) Ketoconazole (-) (CYP 3A4): 34.4% | AUC increase in the presence of ketoconazole versus absence [5]: 10 times
